Data set [1] has as its target T1, human DGAT1 (Homo sapiens, UniProt O75907).
T1 construct: FLAG (N); made in house; host or cells: SF9 insect cells (baculovirus, pFastBac); total cell membranes used as the enzyme source
T1 sequence (O75907 1-488): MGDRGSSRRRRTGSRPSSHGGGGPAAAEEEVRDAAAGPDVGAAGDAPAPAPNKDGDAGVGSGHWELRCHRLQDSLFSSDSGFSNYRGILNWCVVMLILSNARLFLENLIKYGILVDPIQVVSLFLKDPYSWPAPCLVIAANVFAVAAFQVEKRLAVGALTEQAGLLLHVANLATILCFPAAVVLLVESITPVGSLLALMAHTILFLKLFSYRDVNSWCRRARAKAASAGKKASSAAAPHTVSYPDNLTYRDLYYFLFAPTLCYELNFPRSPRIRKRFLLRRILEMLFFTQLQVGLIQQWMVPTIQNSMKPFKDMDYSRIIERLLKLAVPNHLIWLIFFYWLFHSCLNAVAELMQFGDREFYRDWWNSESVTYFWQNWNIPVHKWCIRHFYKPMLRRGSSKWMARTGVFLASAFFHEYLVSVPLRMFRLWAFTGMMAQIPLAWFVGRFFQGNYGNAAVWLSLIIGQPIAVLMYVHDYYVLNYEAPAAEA
Kind of data set: DGAT1 FlashPlate inhibition assay with DGAT1 membrane preparations. To be noted: IC50 values expressed in M; pIC50 = -logIC50; inhibition of DGAT1 activity. It counts as biochemical. In a few lines: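 Membranes from Sf9 cells expressing N-FLAG human DGAT1 were incubated 120 min at 37 °C with 50 μM DAG in PC/PS micelles and 8.4 μM [3H]-oleoylCoA in Tris pH 7.4, MgCl2, EDTA and 0.2% BSA. The reaction was stopped with N-ethylmaleimide, and triacylglycerol was read by FlashPlate radioluminescence and normalised to enzyme and no-enzyme controls.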

What is called IC50 is the concentration that gives 50% inhibition. High values mean weaker potency in that assay, low ones greater potency in that assay. In general, melting point refers to the temperature of the solid-liquid transition.

In turn, `O=C(Nc1ccc(N2CCN(C(=O)Nc3c(Cl)cccc3Cl)CC2)cc1)c1ccccc1-c1ccc(C(F)(F)F)cc1` [Compound 9] yielded a melting point of 289 °C. In data set [1], this compound had an IC50 of 30.2 nM. For `O=C(Nc1ccc(N2CCN(C(=O)Oc3c(Cl)cccc3Cl)CC2)cc1)c1cccc(N2CCCC2)c1` [Compound 139] the same measures were 212.69 °C and 6.46 nM. In turn, `COC(=O)c1cccc(C(=O)Nc2ccc(N3CCN(C(=O)Nc4c(Cl)cc(CN5CCCC5)cc4Cl)CC3)cc2)c1` [Compound 140] had a melting point of 247.52 °C. In addition, the IC50 in data set [1] was 12.6 nM. For `O=C(Nc1ccc(N2CCN(C(=S)Nc3c(Cl)cccc3Cl)CC2)cc1)c1ccccc1-c1ccc(C(F)(F)F)cc1` [Compound 8] the same measures were 224.5 °C and 214 nM. As for `CN1CCN(C(=O)Cc2cc(Cl)c(NC(=O)N3CCN(c4ccc(NC(=O)c5cccc(N6CCCC6)c5)cc4)CC3)c(Cl)c2)CC1` [Compound 136], the melting point is 254.77 °C. The compound also gave an IC50 in data set [1] of 1.82 nM. For `CC(C)N(Cc1cc(Cl)c(NC(=O)N2CCN(c3ccc(NC(=O)c4cccc(N5CCCC5)c4)cc3)CC2)c(Cl)c1)C(C)C` [Compound 137] the same measures were 270.85 °C and 4.17 nM.

Compound `Cc1cccc(C)c1NC(=O)N1CCN(c2ccc(NC(=O)c3ccccc3-c3ccc(C(F)(F)F)cc3)cc2)CC1` [Compound 82] showed an IC50 in data set [1] of 269 nM. On the same count and under the same terms, under `O=C(Nc1ccc(N2CCN(C(=O)Nc3c(Cl)cccc3Cl)CC2)cc1)c1cccc(-n2ccnc2)c1` [Compound 23] stands 33.1 nM; under `COc1ccccc1NC(=O)N1CCN(c2ccc(NC(=O)c3ccccc3-c3ccc(C(F)(F)F)cc3)cc2)CC1` [Compound 80], 5500 nM.

For the compound `Cc1cccc(Cl)c1NC(=O)N1CCC(c2ccc(NC(=O)c3ccccc3-c3ccc(C(F)(F)F)cc3)cc2)CC1` [Compound 113], the IC50 in data set [1] was 1070 nM. Compared with the last compound, the IC50 is about 5.1-fold lower. On the same count and under the same terms, under `CN1CC(C(=O)Nc2ccc(N3CCN(C(=O)Nc4c(Cl)cccc4Cl)CC3)cc2)CC1=O` (stereo not drawn) [Compound 11] stands 1120 nM; under `Cc1nc(-c2cccc(C(=O)Nc3ccc(N4CCN(C(=O)Nc5c(Cl)cccc5Cl)CC4)cc3)c2)cs1` [Compound 17], 2.09 nM; under `CC(C)(C)c1ccccc1NC(=O)N1CCN(c2ccc(NC(=O)c3ccccc3-c3ccc(C(F)(F)F)cc3)cc2)CC1` [Compound 78], 7590 nM. Same read-out and setting: then `C=CCNC(=O)N1CCC(c2ccc(NC(=O)c3ccccc3-c3ccc(C(F)(F)F)cc3)cc2)CC1` [Compound 107], with 2450 nM.

The compound `CCC(C)c1ccccc1NC(=O)N1CCN(c2ccc(NC(=O)c3ccccc3-c3ccc(C(F)(F)F)cc3)cc2)CC1` (stereo not drawn) [Compound 79] showed an IC50 in data set [1] of 6460 nM.

As to `O=C(Nc1ccc(N2CCN(C(=O)Nc3c(Cl)cccc3Cl)CC2)cc1)c1ccccc1N1CCS(=O)(=O)CC1` [Compound 42], the IC50 in data set [1] was 1170 nM. Against the preceding compound, the IC50 is about 5.5-fold lower. On the same count and under the same terms, then `O=C(Nc1ccc(N2CCN(C(=O)Nc3c(Cl)cccc3Cl)CC2)cc1)c1ccc(-c2cc[nH]n2)cc1` [Compound 25], with 70.8 nM. On the same count and under the same terms, under `CCc1ccccc1NC(=O)N1CCC(c2ccc(NC(=O)c3ccccc3-c3ccc(C(F)(F)F)cc3)cc2)CC1` [Compound 108] stands 4470 nM; under `Cc1cc(C)n(-c2ccc(C(=O)Nc3ccc(N4CCN(C(=O)Nc5c(Cl)cccc5Cl)CC4)cc3)cc2)n1` [Compound 27], 3.89 nM.

With `O=C(Nc1ccc(N2CCN(C(=O)Nc3ccccc3I)CC2)cc1)c1ccccc1-c1ccc(C(F)(F)F)cc1` [Compound 91], the IC50 in data set [1] was 1510 nM. Compared with the last compound, the IC50 is about 390-fold higher. The compound `O=C(O)c1cccc(C(=O)Nc2ccc(N3CCN(C(=O)Cc4c(Cl)cc(CN5CCCC5)cc4Cl)CC3)cc2)c1` [Compound 146] gave an IC50 in data set [1] of 3390 nM.

The compound `Cc1nc(C(=O)Nc2ccc(N3CCN(C(=O)Nc4c(Cl)cccc4Cl)CC3)cc2)c(-c2ccc(C(C)C)cc2)s1` [Compound 2] showed an IC50 in data set [1] of 112 nM. In data set [1], `Cc1ccccc1-c1cccc(C(=O)Nc2ccc(C3CCN(C(=O)Nc4c(Cl)cccc4Cl)CC3)cc2)c1` [Compound 60] gave an IC50 of 17.4 nM. This IC50 lies about 6.4-fold lower than the previous one.

Compound `O=C(Nc1ccc(N2CCN(C(=O)Nc3c(Cl)cccc3Cl)CC2)cc1)c1ccccc1-c1ccccc1` [Compound 34] had an IC50 in data set [1] of 20.4 nM.

Source of the values: US9227935B2, “Piperidine/piperazine derivatives” (Janssen Pharmaceutica N.V., priority 2007, dated 2016).
